PMC6017331, “Bacterial Production, Characterization and Protein Modeling of a Novel Monofuctional Isoform of FAD Synthase in Humans: An Emergency Protein?” (Molecules : A Journal of Synthetic Chemistry and Natural …, 2018)

Columns and labels:
[1] = target: T1, hFADS6 (6-His-hFADS6; human FAD synthase isoform 6) (Homo sapiens, UniProt Q8NFF5); assay: fluorimetric FAD synthesis, Michaelis-Menten fit; format: biochemical; conditions: 5 mM MgCl2, 50 mM Tris/HCl pH 7.5, 37 °C
T1 construct: gene FLAD1; 320 residues (963 bp cDNA) from Met268 of FADS1, PAPS reductase domain plus N-terminal extension; E. coli Rosetta(DE3)pLysS; monomer

[2] = target: T1, hFADS6 (6-His-hFADS6; human FAD synthase isoform 6); assay: absorbance spectrum and HPLC of acid-extracted flavin from purified protein; format: binding; conditions: co-purified from E. coli; tightly but not covalently bound
[3] = target: T1, hFADS6 (6-His-hFADS6; human FAD synthase isoform 6); assay: fluorimetric FAD pyrophosphorolysis; format: biochemical; conditions: NaPPi, 5 mM MgCl2, 50 mM Tris/HCl pH 7.5, 37 °C; reverse reaction; detection limit of the instrument; read-out: KmFAD
[4] = target: human FAD synthase isoform 2 (6-His-hFADS2) (human); assay: SEC-MALS; tandem HPLC-GPC/LS on a Superose 12 10/300 GL column, 0.5 mL/min, 40 mM Hepes/Na, 150 mM NaCl, pH 7.4; MALS masses taken from the peaks run with 1 mM DTT

T1 sequence (Q8NFF5 268-587): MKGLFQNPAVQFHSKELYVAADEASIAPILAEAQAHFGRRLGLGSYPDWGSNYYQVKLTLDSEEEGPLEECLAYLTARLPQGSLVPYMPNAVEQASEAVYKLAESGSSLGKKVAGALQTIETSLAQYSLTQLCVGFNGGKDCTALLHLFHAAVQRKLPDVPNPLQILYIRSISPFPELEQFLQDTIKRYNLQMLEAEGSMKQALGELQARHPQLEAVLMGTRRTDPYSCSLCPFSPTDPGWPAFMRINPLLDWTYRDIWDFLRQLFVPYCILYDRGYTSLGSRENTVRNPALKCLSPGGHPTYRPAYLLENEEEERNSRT
Chain of human FAD synthase isoform 2 (6-His-hFADS2) (enzyme) (Q8NFF5 98-587): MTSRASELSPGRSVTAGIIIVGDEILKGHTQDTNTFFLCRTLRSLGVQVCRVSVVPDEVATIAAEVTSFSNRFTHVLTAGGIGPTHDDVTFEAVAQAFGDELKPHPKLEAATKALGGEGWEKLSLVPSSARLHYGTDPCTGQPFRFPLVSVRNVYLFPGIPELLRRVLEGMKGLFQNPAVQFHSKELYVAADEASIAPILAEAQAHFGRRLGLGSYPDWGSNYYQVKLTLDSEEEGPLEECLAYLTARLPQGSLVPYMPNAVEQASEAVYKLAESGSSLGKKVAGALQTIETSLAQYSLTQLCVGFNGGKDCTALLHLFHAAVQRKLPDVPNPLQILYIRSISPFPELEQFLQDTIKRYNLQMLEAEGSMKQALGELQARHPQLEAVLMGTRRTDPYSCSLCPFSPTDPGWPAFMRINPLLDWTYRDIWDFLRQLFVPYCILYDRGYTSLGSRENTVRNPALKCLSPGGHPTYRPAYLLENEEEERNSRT

**Q.** For `Nc1ncnc2c1ncn2[C@@H]1O[C@H](COP(=O)(O)OP(=O)(O)OP(=O)(O)O)[C@@H](O)[C@H]1O` [ATP], which Km ([1]; 2 µM FMN, read-out: KmATP (apparent)) is on record?
**A.** 6.91 ± 0.51 µM

**Q.** For `Cc1cc2nc3c(=O)[nH]c(=O)nc-3n(C[C@H](O)[C@H](O)[C@H](O)COP(=O)(O)OP(=O)(O)OC[C@H]3O[C@@H](n4cnc5c(N)ncnc54)[C@H](O)[C@@H]3O)c2cc1C` [FAD], which FAD/monomer ratio [2] is on record?
**A.** demonstrates that the bound cofactor is FAD

**Q.** And the Km [3]?
**A.** < 0.1 µM

**Q.** Which Km ([1]; 100 µM ATP, read-out: KmFMN (apparent)) does the source give for `Cc1cc2nc3c(=O)[nH]c(=O)nc-3n(C[C@H](O)[C@H](O)[C@H](O)COP(=O)(O)O)c2cc1C` [FMN] here?
**A.** 0.13 ± 0.01 µM

**Q.** How did the stoichiometry N [4] turn out when “human FAD synthase isoform 2 (6-His-hFADS2) (enzyme)” was run?
**A.** 2
